Measured values from patent publication US20260242418A1, “CYCLIC PEPTIDES WITH ANTIBACTERIAL ACTIVITY AGAINST MULTIDRUG RESISTANT (MDR) PATHOGENS” (priority 2022, published 2026).
≈ marks a conversion by molar mass, not a printed value. Like-named read-outs stand apart in the source and are kept apart here.

What was measured:
A. baumannii = type: cell-based; conditions: for Folds: with vs w/o albumin
Method: (§1) To assess antimicrobial activity of PLP3 in a physiological relevant environment, MICs were performed at physiological human albumin concentrations. To this end, Mueller-Hinton broth (MHB) was supplemented with 40 mg/mL human albumin (A1653-5G, Merck) and broth microdilution protocol was used. SEQ ID NO: 4 (PLP-3) and colistin stocks were prepared both in MHB and albumin supplemented MHB. These were used for comparison of MICs in the presence or absence of albumin, and as a control.

P. aeruginosa = type: cell-based; conditions: for Folds: with vs w/o albumin
Method: as §1

[1] = tested on: A. baumannii 8 clinical strain; assay: Time-kill curves; type: cell-based, Acinetobacter baumannii
Method: (§2) Time-kill curves (TKC) determine the in vitro antimicrobial activity of a compound, monitoring the bacterial growth over a certain period of time.
(§3) This assay was performed for two Acinetobacter baumannii strains (a clinical strain and ATCC 19606 strain) and one Pseudomonas aeruginosa ATCC 27853 strain, monitoring its growth during 24 hours at different PLP-3 (SEQ ID NO: 4) concentrations: MIC, 2×MIC, 4×MIC, 8×MIC. Moreover, in each TKC assay a negative and a positive growth control was stablished.
(§4) In different 13MI tubes, a certain concentration of PLP-3 peptide, Mueller-Hinton Broth (MHB, 1214, Condalab) and a fixed inoculum concentration were added. The final inoculum concentration in each tube was […]. Tubes were incubated at 37° C. at 180 rpm during 24 hours. Aliquots of the liquid culture were taken at different times: 0 h, 10 minutes, 30 minutes, 1 h, 2 h, 4 h, 8 h and 24 h. For each taken aliquot, serial dilutions with Phosphate Saline Buffer 1× (PBS 1×) were made and streaked in Luria-Bertani Agar (LB, 1083, Condalab). LB Agar plates were incubated at 37° C. during 18-22 hours. Grown colonies in LB Agar were counted in order to quantify the inoculum in each time period.
(§5) Three biological replicates were performed for each strain, and the mean and standard deviation was determined each time.

A. baumannii ATCC 19606 = assay: Time-kill curves; type: cell-based, Acinetobacter baumannii
Method: as §2, §3, §4, §5

in vitro = type: cell-based, human; conditions: human, haemolysis % relative to 1% TX-100 at 64 ug/mL PLP-3
Method: (§6) A 50% haematocrit solution (1:1 PBS 1×, P5493, 1 L, Sigma) was obtained from a commercially available human blood sample by performing 3 consecutive washes with PBS 1× and centrifuging at 2600 rpm for 10 minutes between washes. A final 4% erythrocyte solution was prepared with PBS 1× and chilled on ice until used.
(§7) Colistin and SEQ ID NO: 4 (PLP-3) stocks were prepared at 256 μg/mL in MHB and left at 4 C until used.
(§8) 96-well, round bottom plates were filled with 50 μL PBS 1× but for the haemolysis controls, which were left empty. 50 μL of each antimicrobial were added to the first column of each plate and serial dilution was performed. Then 50 μL of 4% erythrocyte solution were added to all wells of the plate and gently resuspended. Positive control consisted in PBS 1× and erythrocytes while haemolysis control was settled at 1% Triton™ X-100 (TX-100, 9002-93-1, 100 mL, Sigma) and erythrocytes.
(§9) Plates were incubated for 4 h at 37° C. and then centrifuged at 1500 rpm 5 min. […] An EPOCH™ spectrophotometer was used to read the plates at 450 nm.
(§10) Haemolysis assays of human erythrocytes were done using 1% TX-100 as a control for total haemolysis and absorbance values of PLP-3 were represented in relation to total haemolysis (TX-100 values).

human erythrocytes = assay: in vitro; type: cell-based; conditions: red cells of human
Method: as §6, §7, §8, §9, §10

[2] = time-kill curves over 24 hours, MIC to 8xMIC

SMILES: CC(C)C[C@@H]1NC(=O)[C@H](CCCNC(=N)N)NC(=O)[C@H](CCCNC(=N)N)NC(=O)[C@H](CCCNC(=N)N)NC(=O)[C@H]2CCCN2C(=O)[C@H](CCCNC(=N)N)NC(=O)[C@H](CCCNC(=N)N)NC(=O)[C@H](C(C)C)NC(=O)[C@@H]2CSSC[C@H](NC1=O)C(=O)N[C@@H](Cc1ccccc1)C(=O)N[C@@H](C(C)C)C(=O)N[C@@H](CCCNC(=N)N)C(=O)N1CCC[C@@H]1C(=O)N[C@@H](CCCCN)C(=O)N[C@@H](Cc1ccccc1)C(=O)N[C@@H](C(C)C)C(=O)N[C@@H](C(C)C)C(=O)N2 [PLP-3, cyclo[RRRLCFVRPKFVVCVRRP]]
- MIC With Albumin 40 mg/mL (A. baumannii; strain ATCC 17978): 4 µg/mL
- MIC w/o Albumin (A. baumannii; strain ATCC 17978): 1 µg/mL (≈ 0.441 µM)
- Folds (A. baumannii; strain ATCC 17978): 2
- MIC With Albumin 40 mg/mL (A. baumannii; strain CR17): 2 µg/mL
- MIC w/o Albumin (A. baumannii; strain CR17): 1 µg/mL (≈ 0.441 µM)
- Folds (A. baumannii; strain CR17): 1
- MIC With Albumin 40 mg/mL (P. aeruginosa; strain ATCC 27853): 8 µg/mL
- MIC w/o Albumin (P. aeruginosa; strain ATCC 27853): 2 µg/mL (≈ 0.882 µM)
- Folds (P. aeruginosa; strain ATCC 27853): 2
- MIC With Albumin 40 mg/mL (P. aeruginosa; strain R2): 32 µg/mL
- MIC w/o Albumin (P. aeruginosa; strain R2): 4 µg/mL (≈ 1.76 µM)
- Folds (P. aeruginosa; strain R2): 3
- log(CFU/mL) Mean ([1]; 2xMIC (4 μg/mL), 0.00 h): 5.60 log(CFU/mL)
- log(CFU/mL) Mean ([1]; 2xMIC (4 μg/mL), 0.17 h): 5.56 log(CFU/mL)
- log(CFU/mL) Mean ([1]; 2xMIC (4 μg/mL), 0.50 h): 4.92 log(CFU/mL)
- log(CFU/mL) Mean ([1]; 2xMIC (4 μg/mL), 1.00 h): 4.20 log(CFU/mL)
- log(CFU/mL) Mean ([1]; 2xMIC (4 μg/mL), 2.00 h): 2.74 log(CFU/mL)
- log(CFU/mL) Mean ([1]; 2xMIC (4 μg/mL), 4.00 h): 1.89 log(CFU/mL)
- log(CFU/mL) Mean ([1]; 2xMIC (4 μg/mL), 8.00 h): 1.05 log(CFU/mL)
- log(CFU/mL) Mean ([1]; 2xMIC (4 μg/mL), 24.00 h): 1.49 log(CFU/mL)
- log(CFU/mL) Mean ([1]; 4xMIC (8 μg/mL), 0.00 h): 5.60 log(CFU/mL)
- log(CFU/mL) Mean ([1]; 4xMIC (8 μg/mL), 0.17 h): 5.30 log(CFU/mL)
- log(CFU/mL) Mean ([1]; 4xMIC (8 μg/mL), 0.50 h): 4.11 log(CFU/mL)
- log(CFU/mL) Mean ([1]; 4xMIC (8 μg/mL), 1.00 h): 2.74 log(CFU/mL)
- log(CFU/mL) Mean ([1]; 4xMIC (8 μg/mL), 2.00 h): 0.00 log(CFU/mL)
- log(CFU/mL) Mean ([1]; 4xMIC (8 μg/mL), 4.00 h): 0.00 log(CFU/mL)
- log(CFU/mL) Mean ([1]; 4xMIC (8 μg/mL), 8.00 h): 0.00 log(CFU/mL)
- log(CFU/mL) Mean ([1]; 4xMIC (8 μg/mL), 24.00 h): 0.00 log(CFU/mL)
- log(CFU/mL) Mean ([1]; 8xMIC (16 μg/mL), 0.00 h): 5.60 log(CFU/mL)
- log(CFU/mL) Mean ([1]; 8xMIC (16 μg/mL), 0.17 h): 4.45 log(CFU/mL)
- log(CFU/mL) Mean ([1]; 8xMIC (16 μg/mL), 0.50 h): 0.00 log(CFU/mL)
- log(CFU/mL) Mean ([1]; 8xMIC (16 μg/mL), 1.00 h): 0.00 log(CFU/mL)
- log(CFU/mL) Mean ([1]; 8xMIC (16 μg/mL), 2.00 h): 0.00 log(CFU/mL)
- log(CFU/mL) Mean ([1]; 8xMIC (16 μg/mL), 4.00 h): 0.00 log(CFU/mL)
- log(CFU/mL) Mean ([1]; 8xMIC (16 μg/mL), 8.00 h): 0.00 log(CFU/mL)
- log(CFU/mL) Mean ([1]; 8xMIC (16 μg/mL), 24.00 h): 0.00 log(CFU/mL)
- log(CFU/mL) Mean ([1]; MIC (2 μg/mL), 0.00 h): 5.60 log(CFU/mL)
- log(CFU/mL) Mean ([1]; MIC (2 μg/mL), 0.17 h): 5.63 log(CFU/mL)
- log(CFU/mL) Mean ([1]; MIC (2 μg/mL), 0.50 h): 5.18 log(CFU/mL)
- log(CFU/mL) Mean ([1]; MIC (2 μg/mL), 1.00 h): 4.55 log(CFU/mL)
- log(CFU/mL) Mean ([1]; MIC (2 μg/mL), 2.00 h): 3.56 log(CFU/mL)
- log(CFU/mL) Mean ([1]; MIC (2 μg/mL), 4.00 h): 2.54 log(CFU/mL)
- log(CFU/mL) Mean ([1]; MIC (2 μg/mL), 8.00 h): 2.90 log(CFU/mL)
- log(CFU/mL) Mean ([1]; MIC (2 μg/mL), 24.00 h): 4.67 log(CFU/mL)
- bactericidal or bacteriostatic activity [1, 2]: bactericidal effect
- log(CFU/mL) Mean (A. baumannii ATCC 19606; 2xMIC (4 μg/mL), 0.00 h): 5.87 log(CFU/mL)
- log(CFU/mL) Mean (A. baumannii ATCC 19606; 2xMIC (4 μg/mL), 0.17 h): 5.54 log(CFU/mL)
- log(CFU/mL) Mean (A. baumannii ATCC 19606; 2xMIC (4 μg/mL), 0.50 h): 4.91 log(CFU/mL)
- log(CFU/mL) Mean (A. baumannii ATCC 19606; 2xMIC (4 μg/mL), 1.00 h): 3.14 log(CFU/mL)
- log(CFU/mL) Mean (A. baumannii ATCC 19606; 2xMIC (4 μg/mL), 2.00 h): 2.18 log(CFU/mL)
- log(CFU/mL) Mean (A. baumannii ATCC 19606; 2xMIC (4 μg/mL), 4.00 h): 2.58 log(CFU/mL)
- log(CFU/mL) Mean (A. baumannii ATCC 19606; 2xMIC (4 μg/mL), 8.00 h): 2.56 log(CFU/mL)
- log(CFU/mL) Mean (A. baumannii ATCC 19606; 2xMIC (4 μg/mL), 24.00 h): 3.30 log(CFU/mL)
- log(CFU/mL) Mean (A. baumannii ATCC 19606; 4xMIC (8 μg/mL), 0.00 h): 5.87 log(CFU/mL)
- log(CFU/mL) Mean (A. baumannii ATCC 19606; 4xMIC (8 μg/mL), 0.17 h): 5.12 log(CFU/mL)
- log(CFU/mL) Mean (A. baumannii ATCC 19606; 4xMIC (8 μg/mL), 0.50 h): 3.79 log(CFU/mL)
- log(CFU/mL) Mean (A. baumannii ATCC 19606; 4xMIC (8 μg/mL), 1.00 h): 0.94 log(CFU/mL)
- log(CFU/mL) Mean (A. baumannii ATCC 19606; 4xMIC (8 μg/mL), 2.00 h): 0.00 log(CFU/mL)
- log(CFU/mL) Mean (A. baumannii ATCC 19606; 4xMIC (8 μg/mL), 4.00 h): 0.00 log(CFU/mL)
- log(CFU/mL) Mean (A. baumannii ATCC 19606; 4xMIC (8 μg/mL), 8.00 h): 0.00 log(CFU/mL)
- log(CFU/mL) Mean (A. baumannii ATCC 19606; 4xMIC (8 μg/mL), 24.00 h): 0.00 log(CFU/mL)
- log(CFU/mL) Mean (A. baumannii ATCC 19606; 8xMIC (16 μg/mL), 0.00 h): 5.87 log(CFU/mL)
- log(CFU/mL) Mean (A. baumannii ATCC 19606; 8xMIC (16 μg/mL), 0.17 h): 3.41 log(CFU/mL)
- log(CFU/mL) Mean (A. baumannii ATCC 19606; 8xMIC (16 μg/mL), 0.50 h): 0.87 log(CFU/mL)
- log(CFU/mL) Mean (A. baumannii ATCC 19606; 8xMIC (16 μg/mL), 1.00 h): 0.00 log(CFU/mL)
- log(CFU/mL) Mean (A. baumannii ATCC 19606; 8xMIC (16 μg/mL), 2.00 h): 0.00 log(CFU/mL)
- log(CFU/mL) Mean (A. baumannii ATCC 19606; 8xMIC (16 μg/mL), 4.00 h): 0.00 log(CFU/mL)
- log(CFU/mL) Mean (A. baumannii ATCC 19606; 8xMIC (16 μg/mL), 8.00 h): 0.00 log(CFU/mL)
- log(CFU/mL) Mean (A. baumannii ATCC 19606; 8xMIC (16 μg/mL), 24.00 h): 0.00 log(CFU/mL)
- log(CFU/mL) Mean (A. baumannii ATCC 19606; MIC (2 μg/mL), 0.00 h): 5.87 log(CFU/mL)
- log(CFU/mL) Mean (A. baumannii ATCC 19606; MIC (2 μg/mL), 0.17 h): 5.85 log(CFU/mL)
- log(CFU/mL) Mean (A. baumannii ATCC 19606; MIC (2 μg/mL), 0.50 h): 5.43 log(CFU/mL)
- log(CFU/mL) Mean (A. baumannii ATCC 19606; MIC (2 μg/mL), 1.00 h): 4.01 log(CFU/mL)
- log(CFU/mL) Mean (A. baumannii ATCC 19606; MIC (2 μg/mL), 2.00 h): 2.39 log(CFU/mL)
- log(CFU/mL) Mean (A. baumannii ATCC 19606; MIC (2 μg/mL), 4.00 h): 3.05 log(CFU/mL)
- log(CFU/mL) Mean (A. baumannii ATCC 19606; MIC (2 μg/mL), 8.00 h): 3.85 log(CFU/mL)
- log(CFU/mL) Mean (A. baumannii ATCC 19606; MIC (2 μg/mL), 24.00 h): 5.17 log(CFU/mL)
- bactericidal or bacteriostatic activity (A. baumannii ATCC 19606; [2]): bactericidal effect
- hemolysis at 4 h, 64 ug/mL (in vitro): 62.6%
- IC50 from the haemolysis curve (human erythrocytes): 48.53 µg/mL (≈ 21.4 µM)
